The values below come from patent US7346384B2, “Method of magnetic resonance investigation of a sample using a nuclear spin polarised MR imaging agent” (GE Healthcare AS, priority 2000, dated 2008).

One data set is described as follows: water solubility. Format: physicochemical.
Data set [1] is described as follows: T1 relaxation time of the reporter compound. To be noted: high T1 agent; 15N storage nucleus; no field or temperature printed for this value. Format: physicochemical.

As for `[2H]C([2H])(F)C([2H])([2H])[N+](C)(C)C` [molecule (I)], the water solubility result in the data set “water solubility” is “good”. For the same molecule, in data set [1], the T1 value entry is given as “about 3 minutes”.
